Data: article PMC11324046, “Second-generation piperazine derivatives as promising radiation countermeasures” (RSC Medicinal Chemistry, 2024)

Assay: Annexin V/PI flow cytometry viability of irradiated MOLT-4 cells
Assay type: cell-based, human
Settings: human, MOLT-4 cells, not irradiated, no irradiation, 24 h, read-out: Viable (annexin V/PI negative) MOLT-4 cells, compound alone; for viability at 24 h, 200 µM: representative histogram Fig. 6A
Procedure: Consequently, we investigated whether the pre-application of these substances can augment the survival of MOLT-4 cells after irradiation exposure. The radioprotective investigation utilized a leukemia MOLT-4 cell model of hematopoietic origin with flow cytometric quantification of cell viability via annexin V/propidium iodide staining.
In the following step, at 24 h after irradiation, MOLT-4 cell viability and cell death were determined by flow cytometry using an Alexa Fluor® 488 annexin V/Dead Cell Apoptosis kit (Life Technologies, Grand Island, NY, USA) following the manufacturer's instructions. The Alexa Fluor®488 annexin V/Dead Cell Apoptosis kit employs the property of Alexa Fluor®488 conjugated to annexin V to bind to phosphatidylserine in the presence of Ca^2+; and the ability of propidium iodide to enter cells with damaged cell membranes and bind to DNA. For each sample, a minimum of 20 000 events were acquired using a CytoFLEX LX flow cytometer (Beckman Coulter, Miami, FL, USA). List mode data were analyzed using Kaluza Analysis 2.1 software (Beckman Coulter, Miami, FL, USA).

[1] = 100 μM, representative histogram Fig. 5A

SMILES | viability at 24 h, 100 µM [1] | viability at 24 h, 200 µM | viability at 2 h, 100 µM [1]
NCCCNCCSP(=O)(O)O [WR2721, amifostine, reference compound] | 83% | 83% | 
NCCCNCCS [WR1065, reference compound] |  | 18% | 64%
